Assay results published in US7029886B1, “Enzymatic substrate, synthesis method and uses” (Bio Merieux, priority 1999, dated 2006).
Marks after values point to notes of the source that are not given here.

Experiments:
[1] = tested on: S. marcescens 042; test: Influence of the incubation atmosphere on revelation of β-D-galactosidase (Table IV); details: 48 H
[2] = tested on: E. coli 206; test: as above
[3] = tested on: E. cloacae 061; test: as above
[4] = tested on: E. faecium 255; test: as above
[5] = tested on: E. coli 115; test: as above
[6] = tested on: E. coli (NCTC, 10418); test: CBR-gal in a liquid medium, pink coloration over time (Table V); format: cell-based; design: key: — signifies a lack of coloration, even after 24 hours
Experimental: (§1) The CBR-gal substrate is tested in a liquid medium, at various concentrations from 0.5 mg/ml to 0.0078 mg/ml. The liquid reaction medium into which the substrate is incorporated is composed of a phosphate buffer, pH 7.4, containing 0.5% of nutrient broth and 0.5% of NaCl. 30 microliters/ml of IPTG are added to the medium for all the substrate concentrations. The strains tested are E. coli (NCTC, 10418), K. pneumoniae (NCTC, 10896), P. rettgeri (NCTC, 7475), E. cloacae (NCTC, 11936), S. marcescens (NCTC, 10211) and S. typhimurium (NCTC, 74), with an inoculum of 0.5 McFarland.

[7] = tested on: K. pneumoniae (NCTC, 10896); test: as above; format: cell-based; design: key: — signifies a lack of coloration, even after 24 hours
Experimental: as §1

[8] = tested on: S. marcescens (NCTC, 10211); test: as above; format: cell-based; design: key: — signifies a lack of coloration, even after 24 hours
Experimental: as §1

[9] = tested on: P. rettgeri (NCTC, 7475); test: as above; format: cell-based; design: key: — signifies a lack of coloration, even after 24 hours
Experimental: as §1

[10] = tested on: E. cloacae (NCTC, 11936); test: as above; format: cell-based; design: key: — signifies a lack of coloration, even after 24 hours
Experimental: as §1

[11] = tested on: S. typhimurium (NCTC, 74); test: as above; format: cell-based; design: key: — signifies a lack of coloration, even after 24 hours
Experimental: as §1

[12] = tested on: E. coli (NCTC, 10418); test: CBR-gal in Columbia agar (solid medium); format: cell-based; details: 2, 6, 10 and 20 mg/100 ml, 37° C. overnight
Experimental: (§2) The CBR-gal substrate is incorporated into a Columbia agar at the following concentrations: 2, 6, 10 and 20 mg/100 ml, and the medium thus prepared is distributed into dishes. Each dish is inoculated with the following organisms: E. coli (NCTC, 10418), K. pneumoniae (NCTC, 10896), P. rettgeri (NCTC, 7475), E. cloacae (NCTC, 11936), S. marcescens (NCTC, 10211) and S. typhimurium (NCTC, 74). IPTG is incorporated into all these media, at a concentration of 3 mg per 100 ml of Columbia agar. All the dishes are incubated at 37° C. overnight.

[13] = tested on: K. pneumoniae (NCTC, 10896); test: CBR-gal in Columbia agar (solid medium); format: cell-based; details: 2, 6, 10 and 20 mg/100 ml, 37° C. overnight
Experimental: as §2

[14] = tested on: S. marcescens (NCTC, 10211); test: CBR-gal in Columbia agar (solid medium); format: cell-based; details: 2, 6, 10 and 20 mg/100 ml, 37° C. overnight
Experimental: as §2

[15] = tested on: E. cloacae (NCTC, 11936); test: CBR-gal in Columbia agar (solid medium); format: cell-based; details: 2, 6, 10 and 20 mg/100 ml, 37° C. overnight
Experimental: as §2

[16] = tested on: E. coli, K. pneumoniae, P. rettgeri, E. cloacae, S. marcescens and S. typhimurium; format: cell-based; details: Columbia agar, 37° C. overnight
Experimental: as §2

## OC[C@H]1O[C@@H](Oc2c[nH]c3ccc(Br)c(Cl)c23)[C@H](O)[C@@H](O)[C@H]1O [X-Gal, reference compound]
[1]; AE (aerobiosis)
  intensity of coloration (arbitrary scale based on a visual observation): 1
[1]; CO2
  intensity of coloration (arbitrary scale based on a visual observation): 2
[1]; MAP (microaerophily)
  intensity of coloration (arbitrary scale based on a visual observation): 1
[2]; 24 H, AE (aerobiosis)
  intensity of coloration (arbitrary scale based on a visual observation): 3
[2]; 24 H, ANA (anaerobiosis)
  intensity of coloration (arbitrary scale based on a visual observation): 1
[2]; 24 H, CO2
  intensity of coloration (arbitrary scale based on a visual observation): 3
[2]; 24 H, MAP (microaerophily)
  intensity of coloration (arbitrary scale based on a visual observation): 1
[2]; 48 H, AE (aerobiosis)
  intensity of coloration (arbitrary scale based on a visual observation): 3
[2]; 48 H, ANA (anaerobiosis)
  intensity of coloration (arbitrary scale based on a visual observation): 1
[2]; 48 H, CO2
  intensity of coloration (arbitrary scale based on a visual observation): 3
[2]; 48 H, MAP (microaerophily)
  intensity of coloration (arbitrary scale based on a visual observation): 1
[3]; 24 H, AE (aerobiosis)
  intensity of coloration (arbitrary scale based on a visual observation): 2
[3]; 24 H, CO2
  intensity of coloration (arbitrary scale based on a visual observation): 2
[3]; 24 H, MAP (microaerophily)
  intensity of coloration (arbitrary scale based on a visual observation): 1
[3]; 48 H, AE (aerobiosis)
  intensity of coloration (arbitrary scale based on a visual observation): 2
[3]; 48 H, ANA (anaerobiosis)
  intensity of coloration (arbitrary scale based on a visual observation): 1
[3]; 48 H, CO2
  intensity of coloration (arbitrary scale based on a visual observation): 2
[3]; 48 H, MAP (microaerophily)
  intensity of coloration (arbitrary scale based on a visual observation): 1
[4]; 24 H, AE (aerobiosis)
  intensity of coloration (arbitrary scale based on a visual observation): 1
[4]; 48 H, AE (aerobiosis)
  intensity of coloration (arbitrary scale based on a visual observation): 3
[4]; 48 H, CO2
  intensity of coloration (arbitrary scale based on a visual observation): 1
[4]; 48 H, MAP (microaerophily)
  intensity of coloration (arbitrary scale based on a visual observation): 1
[5]; 24 H, AE (aerobiosis)
  intensity of coloration (arbitrary scale based on a visual observation): 3*
[5]; 24 H, CO2
  intensity of coloration (arbitrary scale based on a visual observation): 2
[5]; 24 H, MAP (microaerophily)
  intensity of coloration (arbitrary scale based on a visual observation): 2
[5]; 48 H, AE (aerobiosis)
  intensity of coloration (arbitrary scale based on a visual observation): 3
[5]; 48 H, ANA (anaerobiosis)
  intensity of coloration (arbitrary scale based on a visual observation): 1
[5]; 48 H, CO2
  intensity of coloration (arbitrary scale based on a visual observation): 2
[5]; 48 H, MAP (microaerophily)
  intensity of coloration (arbitrary scale based on a visual observation): 2

## O=c1cc2oc3cc(OC4OC(CO)C(O)C(O)C4O)c(Cl)cc3nc-2c2ccccc12 [CBR-gal, 8-chloro-1,2-benzoresorufin-β-D-galactoside]
[6]; CBR-gal substrate 0.0078 mg/ml
  time until pink coloration: —
[6]; CBR-gal substrate 0.0156 mg/ml
  time until pink coloration: —
[6]; CBR-gal substrate 0.0313 mg/ml
  time until pink coloration: 24 h
[6]; CBR-gal substrate 0.0625 mg/ml
  time until pink coloration: 4 h
[6]; CBR-gal substrate 0.125 mg/ml
  time until pink coloration: 4 h
[6]; CBR-gal substrate 0.25 mg/ml
  time until pink coloration: 2 h
[6]; CBR-gal substrate 0.5 mg/ml
  time until pink coloration: 2* hours
[7]; CBR-gal substrate 0.0078 mg/ml
  time until pink coloration: —
[7]; CBR-gal substrate 0.0156 mg/ml
  time until pink coloration: —
[7]; CBR-gal substrate 0.0313 mg/ml
  time until pink coloration: 24 h
[7]; CBR-gal substrate 0.0625 mg/ml
  time until pink coloration: 4 h
[7]; CBR-gal substrate 0.125 mg/ml
  time until pink coloration: 4 h
[7]; CBR-gal substrate 0.25 mg/ml
  time until pink coloration: 2 h
[7]; CBR-gal substrate 0.5 mg/ml
  time until pink coloration: 2 h
[8]; CBR-gal substrate 0.0078 mg/ml
  time until pink coloration: —
[8]; CBR-gal substrate 0.0156 mg/ml
  time until pink coloration: —
[8]; CBR-gal substrate 0.0313 mg/ml
  time until pink coloration: 24 h
[8]; CBR-gal substrate 0.0625 mg/ml
  time until pink coloration: 24 h
[8]; CBR-gal substrate 0.125 mg/ml
  time until pink coloration: 24 h
[8]; CBR-gal substrate 0.25 mg/ml
  time until pink coloration: 24 h
[8]; CBR-gal substrate 0.5 mg/ml
  time until pink coloration: 24 h
[9]; CBR-gal substrate 0.0078 mg/ml
  time until pink coloration: —
[9]; CBR-gal substrate 0.0156 mg/ml
  time until pink coloration: —
[9]; CBR-gal substrate 0.0313 mg/ml
  time until pink coloration: —
[9]; CBR-gal substrate 0.0625 mg/ml
  time until pink coloration: —
[9]; CBR-gal substrate 0.125 mg/ml
  time until pink coloration: —
[9]; CBR-gal substrate 0.25 mg/ml
  time until pink coloration: —
[9]; CBR-gal substrate 0.5 mg/ml
  time until pink coloration: —
[10]; CBR-gal substrate 0.0078 mg/ml
  time until pink coloration: —
[10]; CBR-gal substrate 0.0156 mg/ml
  time until pink coloration: —
[10]; CBR-gal substrate 0.0313 mg/ml
  time until pink coloration: 24 h
[10]; CBR-gal substrate 0.0625 mg/ml
  time until pink coloration: 4 h
[10]; CBR-gal substrate 0.125 mg/ml
  time until pink coloration: 4 h
[10]; CBR-gal substrate 0.25 mg/ml
  time until pink coloration: 2 h
[10]; CBR-gal substrate 0.5 mg/ml
  time until pink coloration: 2 h
[11]; CBR-gal substrate 0.0078 mg/ml
  time until pink coloration: —
[11]; CBR-gal substrate 0.0156 mg/ml
  time until pink coloration: —
[11]; CBR-gal substrate 0.0313 mg/ml
  time until pink coloration: —
[11]; CBR-gal substrate 0.0625 mg/ml
  time until pink coloration: —
[11]; CBR-gal substrate 0.125 mg/ml
  time until pink coloration: —
[11]; CBR-gal substrate 0.25 mg/ml
  time until pink coloration: —
[11]; CBR-gal substrate 0.5 mg/ml
  time until pink coloration: —
[12]
  coloration of the bacterial colony: pink coloration
[13]
  coloration of the bacterial colony: pink coloration
[14]
  coloration of the bacterial colony: pink coloration
[15]
  coloration of the bacterial colony: pink coloration
[16]
  optimum concentration to obtain a clearly visible pink coloration without any background noise: around 10 mg/100 ml
